Key:
human PBMC = test: ConA mitogen-stimulated proliferation of human PBMC; type: cell-based; conditions: ConA 1 μg/ml, 100,000 PBMC
Experimental: Blood specimens were obtained with consent from healthy human volunteers. Human peripheral blood mononuclear cells (PBMC) were isolated from heparinised whole blood by buoyant density centrifugation over Histopaque 1077 (Sigma, Poole, UK) at 600 g for 20 minutes. PBMC harvested from the ‘buffy’ layers were washed twice with RPMI 1640 medium and resuspended in CTCM. HSL compounds were tested at similar dilutions as for murine splenocytes in 200 μl of CTCM, containing 1 μg/ml of ConA and 100,000 PBMC. Human PBMC were incubated for 48 h at 37° C. in 5% CO2-air, followed by pulsing with 0.25 μCi [^3H]-thymidine (see above). After a further incubation of 24 h cells were harvested onto fibreglass filters and then counted in the presence of MicroScint-O with the Packard TopCount.
Concanavalin induced cell proliferation of human peripheral blood mononuclear cells (PBMC) was tracked, as described in I above, by a measurement of counts per minute using the scintillation counter. The inhibitory effect of an HSL compound being tested on cell proliferation was indicated by a reduction in counts per minute. […]
(§1) In the cell culture assays the number of cells used (mouse splenocytes and human PBMC) was initially optimised to 100,000 cells per well. The optimal dose of ConA of 1 μg/ml used in the cell proliferation assays was determined from ConA titration curves. […]

TNF-alpha production = TNF-alpha production from LPS-stimulated human PBMC; type: cell-based
Experimental: Bacterial lipopolysaccharide (LPS) stimulates the production of a variety of cytokines, including TNF-alpha, from human PBMC; these cytokines in turn influence the development of T cells, supporting a T helper 1 conducive milieu. Human PBMC prepared from whole blood by buoyant density centrifugation were resuspended in CTCM. HSL compounds were again tested at similar dilutions as for murine splenocytes in 200 μl of CTCM, containing 5×10^−5 μg/ml LPS Escherichia coli strain 055:B5 (Sigma, Poole, UK) and 100,000 PBMC. Following incubation for 24 h at 37° C. in 5% CO2-air, the cell culture supernatants were collected and tested for TNF-alpha levels by ‘sandwich’ ELISA. Briefly, 96-well Nunc MaxiSorp (Life Technologies, Paisley, UK) plates were coated with 50 μl of a 2 μg/ml solution of mouse anti-human TNF-alpha monoclonal antibody (Pharmingen, UK) in 0.05 M carbonate/bicarbonate buffer, pH 9.6 overnight at 4° C. After washing the plates three times with PBS-Tween, which contained phosphate buffered saline (PBS) with 0.5% (vol/vol) Tween 20 (Sigma, Poole, UK), the plates were blocked with 1% (wt/vol) bovine serum albumin (BSA) (Sigma, Poole, UK) at room temperature for 2 h. […] Following four washes, the bound biotinylated antibody was detected with 50 μl of a 1:1,000 dilution of Streptavidin-peroxidase (Pharmingen, UK). […] The enzyme reaction was stopped with 50 μl of 2.5 M H2SO4 after an incubation of 10 minutes at room temperature and the development was read at 450 nm with a spectrophotometric 96-well plate reader (Dynex). […]
Similar studies were carried out using, as the HSL compounds, N-(12-bromo-3-oxododecanoyl)-L-homoserine lactone (12BrOdDHL) and N-(12-hydroxy-3-oxododecanoyl)-L-homoserine lactone (12hydroxyOdDHL) and the plots for these are shown in FIG. 9. […] The IC50 value for dexamethasone was determined to be 500.
as §1

diabetes in NOD mice = test: Alleviation of diabetes in NOD mice (incidence of diabetes, Uristix); type: in vivo; conditions: above 6 mMol glucose/l = diabetes
Experimental: The ability of the lead compound (OdDHL) to alleviate diabetes in NOD mice was determined by treating the mice 3 times per week for 4 weeks at 30 mg/kg as above. DMSO and OHHL were used as controls.
Diabetes was diagnosed using Uristix and a level of above 6 mMol glucose/I was taken to indicate the presence of diabetes.

murine splenocytes = test: ConA mitogen-stimulated proliferation of murine splenocytes; type: cell-based, BALB/c mice; conditions: ConA 1 μg/ml, 100,000 spleen cells, 1 mM to 0.1 μM
Experimental: The concanavalin A (ConA) cell proliferation assay was used to assess the effect of homoserine lactone (HSL) compounds on T-cell activation and proliferation. Proliferation was assessed by the incorporation of [^3H]-thymidine into DNA. Eight-week-old female BALB/c mice were obtained from Harlan (Bicester, Oxon, UK) and given food and water ad libitum. Splenocyte suspensions were prepared by removing the spleens and placing them into. RPMI 1640 medium. The spleens were forced through 70-μm-pore-size wire gauzes using the plunger from a 5-ml syringe to produce a single cell suspension. The cells were pelleted by centrifugation, and erythrocytes were lysed with 0.017M Tris, 0.144M ammonium chloride buffer, pH 7.2. Leucocytes were washed twice with RPMI 1640 medium with 2% (vol/vol) foetal calf serum (FCS) and resuspended in complete cell culture medium (CTCM) consisting of RPMI 1640 medium with 5% FCS, 2 mM L-glutamine, and 5×10^−5 M 2-mercaptoethanol. […] After the addition of 25 μl of MicroScint-O (Packard) to each well the filters were counted with the Packard TopCount scintillation counter. […]
as §1

Q: Which “inhibition of proliferation of human PBMC ([3H]-thymidine cpm, FIG. 7)” value (human PBMC) does the source give for `CCCCCCCCCCCC(=O)CC(=O)N[C@H]1CCOC1=O` [OtDHL, N-(3-oxotetradecanoyl)-L-homoserine lactone] here?
A: inhibited proliferation

Q: And the “inhibition of TNF-α secretion (FIG. 8)” value (TNF-alpha production; LPS 5×10^−5 μg/ml, 100,000 PBMC, 24 h, ELISA)?
A: inhibited the secretion

Q: What does the source list for `CCCC(=O)CC(=O)N[C@H]1CCOC1=O` [OHHL, N-(3-oxohexanoyl)-L-homoserine lactone, reference compound]?
A: incidence of diabetes (diabetes in NOD mice; Week of Experiment 20, 30 mg/kg 3 times per week for 4 weeks): 7/10; incidence of diabetes (diabetes in NOD mice; Week of Experiment 30, 30 mg/kg 3 times per week for 4 weeks, week 30 of experiment): 12/20

Q: With `CCCCCC(=O)CC(=O)N[C@H]1CCOC1=O` [OOHL, N-(3-oxooctanoyl)-L-homoserine lactone, reference compound] as the compound, how does the “inhibition of splenocyte proliferation ([3H]-thymidine cpm, FIG. 6)” value (murine splenocytes) read?
A: failed to inhibit proliferation

Q: For `C[C@@H]1C[C@H]2[C@@H]3CCC4=CC(=O)C=C[C@]4(C)[C@@]3(F)[C@@H](O)C[C@]2(C)[C@@]1(O)C(=O)CO` [dexamethasone, reference compound], which IC50 (TNF-alpha production; LPS-stimulated human PBMC, unit from the IC50 definition, read-out: IC50, concentration which inhibits TNF-α secretion by 50%) is on record?
A: 500 µM
